Test systems include SNB-19; OVCAR-3; OVCAR-8; HCT-15; HCT-116; COLO 205; SNB-75; OVCAR-4; UACC-257; T47D; A498; 786-0; A549; UO-31; SK-MEL-28; SF-295; PC-3; UACC-62; M14; SK-MEL-2.
Holding throughout (assay): NCI-60 cell line screen, 48 h

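Briefly, cells in 96-well plates were exposed to five compound concentrations for 48 h, and endpoints were estimated by linear interpolation. GI50 = concentration required for 50% inhibition of growth.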 Activity calls are given as the source filed them. Rule as the data show it: active = GI50 up to about 1.1 µM and inactive = higher. Where only a bound is given, the exact number is not on record here.

Take `CCOC(=O)NC(C(=O)OCC)(N1CCN(c2cc3c(cc2F)c(=O)c(C(=O)O)cn3CC)CC1)C(F)(F)F` (stereo not given): the GI50 with SNB-19 was > 100 µM (inactive); in the test on OVCAR-3, > 100 µM (inactive); with OVCAR-8, 6.1 µM (inactive); in the test with HCT-15 it was more than 100 µM; in the test on HCT-116 it was > 100 µM (inactive); in the test with COLO 205, > 100 µM (inactive). Also, the GI50 in the test on SNB-75, in the test with OVCAR-4, in the test with UACC-257, with T47D, in the test with A498 and with 786-0 was > 100 µM (inactive) throughout. The GI50 was > 100 µM (inactive) with A549; > 100 µM (inactive) in the test on UO-31; 0.197 µM (active) in the test with SK-MEL-28; > 100 µM (inactive) in the test on SF-295; > 100 µM (inactive) in the test with PC-3; > 100 µM (inactive) in the test on UACC-62. The GI50 in the test with M14 and with SK-MEL-2 was > 100 µM (inactive) throughout.

Source of the values: ChEMBL document CHEMBL1201862, “PubChem BioAssay data set” (2004).
